According to patent US7897620B2, “Methods of using anti-inflammatory compounds” (Cambridge Enterprise Limited, priority 2007, dated 2011):
Read-outs that look alike come from different tables or passages of the source.

Experiments:
[1] = system: S. Typhinurium (TA 102, TA98 and TA 100); test: AMES test, revertant colony formation; format: cell-based
Protocol: The five compounds were subjected to a standard AMES test to assess likely genotoxicity. Three His-auxotroph strains of S. Typhinurium (TA 102, TA98 and TA 100) were treated with each of the compounds at 5 concentrations (up to 5 mg/ml) in the presence and absence of S9 rat liver microsomal metabolising system. The number of revertant colonies was then determined by plating on trace-His minimal media.

[2] = Pharmacokinetics following a single dose in rat (LC-MS/MS of blood, one-compartment model); format: in vivo; conditions: rat, averaged across three rats
Protocol: Compounds were administered as a single dose (either 1 mg/kg bodyweight in 5% DMSO via the intravenous route or 3 mg/kg in 1% carboxymethylcellulose via the oral route) to three adult rats (using different rats for each compound and each route of administration).
Blood was then sampled at various time points (including just prior to dose administration) out to 24 hrs post dose, and the level of the various compounds was assessed using a validated LC-MS/MS assay. Briefly, 3-5 μl of the deproteinised sample was applied to a Waters Atlantis (C18 20×2.1 mm, 3 μm bead size) reverse phase chromatography column equilibrated in 0.1% formic acid in 95:5 water:actetonitrile. Over 3.5 minutes bound material was gradient eluted reaching 0.1% formic acid in 5:95 water:acetonitrile, followed by a step gradient back to 0.1% formic acid in 95:5 water:acetonitrile. The column eluent was then directed to an Applied Biosystems API 4000/3200 QTrap MS/MS mass spectrometer, with a Turbolonspray™ ion source operating in positive ion mode. The interface temperature was set at 650° C., with a 40 ms dwell time for each MRM transition, monitoring the following ions:
The internal standard in each determination was the related compound (S)-3-(2′,2′-dimethylpropanoylamino)-caprolactam, which was spiked into the sample prior to deproteinization. The lower limit of quantitation (LLOQ) for this assay was 2.4 ng/ml for each compound except (I′), where it was 38.1 ng/ml.
Following LC-MS/MS analysis of each collected sample, the pharmacokinetic disposition of the compound was modelled using Kinetica software, a well known software package for such applications.

[3] = Identification of the primary metabolites in pooled 24 h urine (LC-MS-MS full scan); format: in vivo; conditions: rat, single oral dose 3 mg/kg in 1% CMC, qualitative
Protocol: Urine was collected from rats exposed to a single oral dose (3 mg/kg in 1% CMC) of each compound over a 24 hour period in metabolic cages. The pooled urine sample was then subjected to full scan mass spectral analysis, using the same LC-MS conditions as described in example 1 above. Further MS-MS analysis of the product ions was then performed, and likely fragmentations/re-arrangements assigned from the publicly available Metabolite ID database.
For the major metabolites, the assigned structures were confirmed by synthesis of authentic samples, using methods well known in the art, which were subject to LC-MS-MS analysis under the same conditions as the urine samples.
Note that metabolite ID studies provide only qualitative estimates of the relative amounts of the different metabolites present, and separately validated assays with appropriate internal standards would be required to quantitate each metabolite species.
The detected metabolites, in rank order of concentration detected are shown in FIG. 2 for the five compounds analysed. It is important to note that the methodology used here is not necessarily exhaustive, and further (particularly minor) metabolites may also be present which were below the detection limits for the methods applied here. As a general rule, it can be assumed that metabolites representing 10% or more of the injected dose will be detected (though not necessarily structurally identified) by the methods used here).

[4] = system: MCP-1 induced THP-1 cell migration; test: ChemoTx transwell migration assay, MCP-1 induced migration of THP-1 cells; format: cell-based; conditions: Homo sapiens
Protocol: In principle, this assay consists of two chambers separated by a porous membrane. The chemoattractant is placed in the lower compartment and the cells are placed in the upper compartment. After incubation for a period at 37° C. the cells move towards the chemoattractant, and the number of cells in the lower compartment is proportional to the chemoattractant activity (relative to a series of controls).
The THP-1 cell line (European Cell Culture Collection) were used as the leukocyte cell population.
First, the cell suspension to be placed in the upper compartment is prepared. The THP-1 cells are pelleted by centrifugation (770×g; 4 mins) and washed with Geys Balanced Salt Solution with 1 mg/ml BSA (GBSS+BSA). This wash is then repeated, and the cells repelleted before being resuspended in a small volume of GBSS+BSA for counting, for example using a standard haemocytometer.
The volume of GBSS+BSA is then adjusted depending on the number of cells present so that the cells are at final density of 4.45×10^6 cells per ml of GBSS+BSA. This ensures that there are […] THP-1 cells in each 25 μl of the solution that will be placed in the upper chamber of the plate.
To test a single compound for its ability to inhibit chemokine induced migration, it is necessary to prepare two lots of cells. The suspension of THP-1 cells at 4.45×10^6 cells/ml is divided into two pots. To one pot the inhibitor under test is added at an appropriate final concentration, in an appropriate vehicle (for example at 1 μM in not more than 1% DMSO). To the second pot an equal volume of GBSS+BSA plus vehicle as appropriate (e.g. not more than 1% DMSO) is added to act as a control.
Next, the chemoattractant solution to be placed in the lower compartment is prepared. For example, MCP-1 is diluted in GBSS+BSA to give a final concentration of 25 ng/ml. This is divided into two pots, as for the cell suspension. To one pot, the test compound is added to the same final concentration as was added to the cell suspension, while to the other pot an equal volume of GBSS+BSA plus vehicle as appropriate (e,g. not more than 1% DMSO) is added. Alternatively, other chemokines may be used (SDF-1α at 7.5 ng/ml; RANTES at 50 ng/ml; IL-8 at 10 ng/ml using neutrophils as the target cell population). In each case it is important to determine (in a separate experiment) the concentration of each chemokine which causes maximal stimulation of migration of the chosen target leukocyte population. This maximal concentration must then be used in experiments to test the inhibitory activity of the compounds of the invention.
Once the chemoattractant solutions for the lower wells and cell solutions for the upper chambers have been prepared, the migration chamber should be assembled. Place 29 μl of the appropriate chemoattractant solution into the lower well of the chamber. Assays should be performed with at least triplicate determinations of each condition. Once all the lower chambers have been filled, apply the porous membrane to the chamber in accordance with the manufacturer's instructions. Finally, apply 25 μl of the appropriate cell solution to each upper chamber. A plastic lid is placed over the entire apparatus to prevent evaporation.
The assembled chamber is incubated at 37° C., 5% CO2, for 2 hours. A suspension of cells in GBSS+BSA is also incubated under identical conditions in a tube: these cells will be used to construct a standard curve for determining the number of cells that have migrated to the lower chamber under each condition.
At the end of the incubation, the liquid cell suspension is gently removed from the upper chamber, and 20 μl of ice-cold 20 mM EDTA in PBS is added to the upper chamber, and the apparatus is incubated at 4° C. for 15 mins. This procedure causes any cells adhering to the underside of the membrane to fall into the lower chamber.
After this incubation the filter is carefully flushed with GBSS+BSA to wash off the EDTA, and then the filter is removed. […]

[5] = system: LPS-induced TNF-α production; test: Sub-lethal LPS-induced endotoxemia, serum TNF-α by ELISA; format: in vivo, mouse; conditions: for inhibition of LPS-induced TNF-α production: mouse, reference agents, previously shown by applicant, dose not stated
Protocol: In this assay, mice are given a non-specific pro-inflammatory challenge using bacterial endotoxin (LPS), and the extent of the systemic inflammatory response (measured by serum levels of the central pro-inflammatory cytokine TNF-α, which is essentially absent from the blood under normal conditions, but is rapidly elevated in response to a wide range of inflammatory stimuli).
Mice (in groups of 6) were pretreated with various doses of each compound, either by the subcutaneous route 30 mins prior to LPS challenge, or by the oral route (via gavage) 60 mins prior to LPS. The mice were then challenged with an intraperitoneal injection of 750 μg of bacterial LPS and sacrificed 3 hours later. Serum was prepared from a terminal bleed by cardiac puncture, and the concentration of TNF-α is determined by ELISA (R&D Systems). In each experiment, a group of 6 mice receive no LPS to act as a negative control, and a second group receive only LPS (with no candidate inhibitor). The level of TNF-α in serum from these animals, which received LPS without drug pre-treatment, is arbitrarily set to 100% (and is typically of the order of 6,000 pg/ml, compared with levels of <10 pg/ml among the negative control group). […]

[6] = system: lung leukocyte recruitment and T-helper cell polarisation; test: Ovalbumin-induced lung inflammation model of asthma (BAL leukocyte count, splenocyte Th1/Th2 ratio); format: in vivo, Brown Norway rat; conditions: rat, 30 mg/kg daily oral
Protocol: Adult Brown Norway rats (200-300 g body weight; n=10 per group) were sensitised by a single intraperitoneal injection of 0.1 mg Ovalbumin on day 0. Each rat then received an intratracheal challenge with a solution of 1% ovalbumin (w/v) on day 8, and with 2% ovalbumin (w/v) on days 15, 18 and 21. The animals were then sacrificed 3 hours after the final challenge on day 21. Note that ovalbumin (Sigma; purest available grade) was made endotoxin-free by passage over EndoTrap™ Red columns (purchased from Cambrex; used in accordance with the manufacturer's instructions), and the endotoxin level was confirmed as <5 EU/mg protein using the LAL assay (QCL-1000™; Cambrex; performed in accordance with the manufacturer's instructions; 1 mg of standard endotoxin contains ˜900,000 EU/mg). […]
On sacrifice, total lung leukocyate recruitment was assessed by performing a broncheoalveolar lavage (BAL) using 4 lots of 3 ml sterile phosphate-buffered saline introduced through a tracheal cannula. For each animal, the BAL washes were combined, and the total cell population counted (using a haemocytometer). […]
The spleen was also removed from each […] and placed in RPMI+10% FCS+antibiotics. […] The resulting cell suspension was then centrifuged (328 g; 5 mins) and washed in RPMI+10% FCS+antibiotics, before being resuspended in fresh media and counted using a haemocytometer. […]

CC1(C(=O)N[C@H]2CCCCNC2=O)CCCCC1 [(III), 3-(1′-methylcyclohexylcarbonylamino)-caprolactam]
Revertant colony formation TA98 + S9 ([1]; TA98 with S9, top dose 5 mg/ml): 0.55
Revertant colony formation TA98 ([1]; TA98 without S9, top dose 5 mg/ml): 0.68
Revertant colony formation TA100 + S9 ([1]; TA100 with S9 rat liver microsomal system, top dose 5 mg/ml): 0.81
Revertant colony formation TA100 ([1]; TA100 without S9, top dose 5 mg/ml): 0.79
Revertant colony formation TA102 + S9 ([1]; TA102 with S9, top dose 5 mg/ml): 0.88
Revertant colony formation TA102 ([1]; TA102 without S9, top dose 5 mg/ml): 0.69
AUC(0-inf) ([2]; blood, single oral dose 3 mg/kg in 1% CMC, read-out: Exposure (AUC 0->infinity) (converted)): 48.3 ng·h/mL
F (%) oral bioavailability ([2]; 1 mg/kg iv in 5% DMSO and 3 mg/kg oral in 1% CMC, one-compartment model): 5%
Vss (L/kg) volume of distribution ([2]; one-compartment model): 0.6 L/kg
clearance ([2]; one-compartment model): 55 mL/min/kg
t½ (mins) dominant plasma half-life ([2]; one-compartment model): 11 min
major metabolite / route of metabolism detected in urine [3]: cytochrome P450-mediated hydroxylation
EC50 ([4]; THP-1 cells, maximal dose of chemoattractant, read-out: ED50 MCP-1): 0.08 nM
EC50 ([4]; THP-1 migration inhibition, Table 5, read-out: Functional ED50 versus MCP-1): 0.08 nM

C=CCCCCCCCCC(=O)N[C@H]1CCC(=O)NC1=O [NR58,4]
fold less potent in vivo than 2′,2′-dimethylpropanoylamino)-tetrahydropyridin-2-one ([5]; models of acute inflammation such as LPS-induced endotoxemia): at least 250 fold

C[C@@H]1C[C@H]2[C@@H]3CCC4=CC(=O)C=C[C@]4(C)[C@@]3(F)[C@@H](O)C[C@]2(C)[C@@]1(O)C(=O)CO [dexamethasone]
inhibition of LPS-induced TNF-α production [5]: at least 90%

CC(C)(O)c1ccccc1CC[C@@H](SCC1(CC(=O)O)CC1)c1cccc(/C=C/c2ccc3ccc(Cl)cc3n2)c1 [monteleukast]
number of leukocytes in the BAL washes [6]: significantly reduced the number of leukocytes in the BAL washes

O=C1CCC(N2C(=O)c3ccccc3C2=O)C(=O)N1 (stereo not drawn) [thalidomide]
inhibition of LPS-induced TNF-α production [5]: about 60%
